From patent US9012655B2, “Antimicrobial/adjuvant compounds and methods” (Denouamed, Inc., priority 2011, dated 2015) come the findings set out here.

The target in assay [1] is AcpS enzyme (Escherichia coli, UniProt P24224). The assay is described as follows: Measurement of AcpS inhibition ([3H]acetyl-CoA incorporation into apo-ACP). The settings on record: % activity vs blank-subtracted counts; for activity at 50 µM / % AcpS activity at 50 uM: test compound 50 uM; for remaining activity at 500 µM / % AcpS activity @ 500 uM: test compound 500 uM. Type of assay: biochemical. As for the experimental part:
[^3H]Acetyl-CoA was mixed as 1 volume of Perkin Elmer NET290 radiolabeled stock (e.g. 0.1 mCi/ml, 3.7 Ci/mmol in Na-acetate, pH 4.5-5.0=27 μM) with 1.2 volumes of 1 mM unlabelled acetyl-CoA (Sigma). Trichloroacetic acid was prepared as a 10% w/v solution. Bovine serum albumin was prepared as a 25 mg/ml solution in water. DTT was prepared as a 50 mM solution in water.
• 1. A standard reaction contained the following in a total volume of 10 μl:
• 2. Tubes were incubated at RT. [^3H]acetyl-CoA was added last to start the reaction. To stop the reaction, 2 μl was removed to a 1.5-ml microfuge tube containing 800 μl cold 10% TCA. Up to four time points were collected for each reaction, e.g. at 5 min, 10 min, 30 min, and 60 min. • 3. 20 μl of 25 mg/ml BSA was added to each tube, mixed and incubated on ice for 10 min, then centrifuged at 12,000 g for 5 min to form a pellet. Supernatant was removed using P1000. • 4. Each pellet was washed twice with 800 μl of cold 10% TCA each time, then centrifuged at 12,000 g for 5 min after each wash. The supernatant was discarded. Each pellet was resuspended in 50 μl of formic acid. The suspension was transferred to a scintillation vial and radioactivity was measured in 2 ml of liquid scintillation cocktail.
The random (stochastic) error in scintillation counting is proportional to the square root of the counts (not dpm) accumulated in the counting period; i.e. 10% for 100, 3.3% for 1,000, 1% for 10,000, etc. Provided radioactive counts (dpm) are in the thousands, the assay provides useful data. Results are reported in terms of % activity with respect to the blank-subtracted counts for working substrate. A % activity of less than about 40% is indicative of AcpS enzyme inhibition by the test compound at that concentration.

Assay [2] has as its system Methicillin-Resistant Staph. aureus (MRSA). As to the kind of experiment: MIC, NCCLS M7-A6 broth microdilution, MRSA. The format is cell-based. The settings on record: 16 to 20 h, 35 degrees Celsius; for MIC: Staphylococcus aureus, MRSA. How it is done: (§1) Susceptibilities to the compounds were determined using the National Committee for Clinical Laboratory Standards (NCCLS) M7-A6 broth microdilution method. Cation-adjusted Mueller-Hinton broth (Ca^2+, 25 μg/mL; Mg^2+, 12.5 μg/mL) microdilution panels were prepared to contain antimicrobial doubling dilution concentrations of an appropriate range. DMSO (dimethylsulfoxide) controls were incorporated into the panel to mimic the quantity of DMSO used in dissolving some of the compounds at the higher concentrations. Each final panel well volume was 100 μL with a bacterial inoculum of 5×10^5 CFU (colony forming units)/mL of the relevant bacterium. Panels were read following 16 to 20 h of incubation at 35 degrees Celsius in ambient air. The MIC (minimum inhibitory concentration) was defined as the lowest concentration of antimicrobial inhibiting visible growth.
In general terms: In broth dilution the organism is exposed to a series of concentrations in liquid medium.

Assay [3] has as its system E. coli D22. As to the kind of experiment: MIC, NCCLS M7-A6 broth microdilution, E. coli D22. The format is cell-based. The settings on record: 35 degrees Celsius; for MIC: Escherichia coli, D22, 16 to 20 h; for MIC E coli D22: 16 to 20 h. As for the experimental part:
as §1

Assay [4] has as its system Streptococcus pneumoniae Group A. As to the kind of experiment: MIC against Streptococcus pneumoniae Group A. The format is cell-based. The settings on record: initial measurement, Todd Hewitt broth. As for the experimental part: as §1
Generally following the procedure of Example 9, but using Todd Hewitt broth (beef heart digest) rather than Mueller-Hinton broth, MICs were initially measured against Streptococcus pneumoniae Group A for compounds of the present invention as follows: […]

In brackets after ≈: the same amount, converted by molar mass. A value given as a limit tells only on which side of the number the result lay.

Chain of AcpS enzyme (P24224 whole entry): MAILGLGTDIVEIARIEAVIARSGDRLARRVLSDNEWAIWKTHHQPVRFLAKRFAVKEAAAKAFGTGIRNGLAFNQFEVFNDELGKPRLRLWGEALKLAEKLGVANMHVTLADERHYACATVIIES

Compound `CCc1ccccc1-c1cc(-c2nnn[nH]2)sc1-c1ccccc1CC` [DNM0541, 5-(4,5-Bis(2-ethylphenyl)thiophen-2-yl)-1H-tetrazole] showed an activity at 50 µM in assay [1] of 63.1%. For the same compound, in assay [1], the remaining activity at 500 µM is 0.3%. Further, the MIC in assay [2] was 30 µM (≈ 10.8 µg/mL); in assay [3], greater than 125 µM.
Take `CN(C)c1ccc(Cl)cc1-c1cc(-c2nn[nH]n2)cc(-c2cc(Cl)ccc2N(C)C)c1` [DNM0510]: in assay [1], the “% AcpS activity at 50 uM” value is 8.4% and the “% AcpS activity @ 500 uM” value was determined as 0.12%. Further, the “MIC MRSA” value in assay [2] turned out to be 4 µM (≈ 1.81 µg/mL). For the same compound, in assay [3], the “MIC E coli D22” value was greater than 125 µM.
In the case of `Cc1c(-c2nnn[nH]2)sc(-c2ccc(Cl)cc2C(C)C)c1-c1ccc(Cl)cc1C(C)C` [DNM0631, 5-(4,5-Bis(4-chloro-2-isopropylphenyl)-3-methylthiophen-2-yl)-1H-tetrazole], the minimal inhibitory concentration (MIC) in assay [4] is less than 0.25 µM.
`CC(C)c1ccccc1-c1cc(-c2nn[nH]n2)cc(-c2ccccc2C(C)C)c1` [DNM0532]: in assay [1], the “% AcpS activity at 50 uM” value is reported as 30.66% and the “% AcpS activity @ 500 uM” value worked out at 0.22%. In assay [2], the “MIC MRSA” value came to 60 µM (≈ 23 µg/mL). Also, in assay [3], the “MIC E coli D22” value is greater than 125 µM.
In the case of `Clc1ccc(-c2cc(-c3ccc(Cl)cc3)cc(-c3nn[nH]n3)c2)cc1` [DNM0470, 5-(3,5-Bis(4-chlorophenyl)phenyl)-2H-tetrazole], the remaining activity at 500 µM in assay [1] turned out to be 27.7%. The MIC worked out at 4 µM (≈ 1.47 µg/mL) in assay [2] and 125 µM (≈ 45.9 µg/mL) in assay [3].
Compound `Cc1c(-c2nnn[nH]2)sc(-c2ccc(C)c3ccccc23)c1-c1ccc(C)c2ccccc12` [DNM0620, 5-(4,5-Bis(4-methylnaphthalen-1-yl)-3-methylthiophen-2-yl)-1H-tetrazole] returned an MIC in assay [4] of less than 0.25 µM.
In assay [1], `COc1c(C)cc(-c2cc(-c3nnn[nH]3)sc2-c2cc(C)c(OC)c(C)c2)cc1C` [DNM0564, 5-(4,5-Bis(4-methoxy-3,5-dimethylphenyl)thiophen-2-yl)-1H-tetrazole] gave an activity at 50 µM of 47.6% and a remaining activity at 500 µM of 0.75%. Besides, the MIC in assay [2] amounted to 15 µM (≈ 6.31 µg/mL). The MIC in assay [3] was greater than 125 µM.
For the compound `c1ccc(Oc2ccc(-c3ccc(-c4ccc(Oc5ccccc5)cc4)c(-c4nn[nH]n4)c3)cc2)cc1` [DNM0453], in assay [1], the “% AcpS activity @ 500 uM” value stood at 23.76%. In addition, the “MIC MRSA” value in assay [2] turned out to be 8 µM (≈ 3.86 µg/mL). The “MIC E coli D22” value in assay [3] was greater than 125 µM.
For the compound `Cc1ccc(-c2cc(-c3nn[nH]n3)cc(-c3cc(Cl)ccc3N(C)C)c2)c2ccccc12` [DNM0514], in assay [1], the “% AcpS activity at 50 uM” value is listed as 5.73% and the “% AcpS activity @ 500 uM” value is 0.14%. The “MIC MRSA” value in assay [2] is 4 µM (≈ 1.76 µg/mL). Besides, the “MIC E coli D22” value in assay [3] was greater than 125 µM.
In turn, `Fc1ccc(-c2cc(-c3nn[nH]n3)cc(-c3ccc(F)c4ccccc34)c2)c2ccccc12` [DNM0539, 5-(3,5-Bis(4-fluoronaphthalen-1-yl)phenyl)-2H-tetrazole] yielded a remaining activity at 500 µM in assay [1] of 39.4%. For the same compound, the MIC in assay [2] is 8 µM (≈ 3.48 µg/mL); in assay [3] it was greater than 125 µM.
For the compound `c1ccc(-c2cc(-c3nnn[nH]3)sc2-c2ccccc2)cc1` [DNM0535], in assay [1], the “% AcpS activity at 50 uM” value is reported as 92.62% and the “% AcpS activity @ 500 uM” value amounted to 3.48%. Besides, the “MIC MRSA” value in assay [2] was 125 µM (≈ 38 µg/mL). For the same compound, in assay [3], the “MIC E coli D22” value is greater than 125 µM.
For the compound `c1ccc(-c2ccccc2-c2cc(-c3nn[nH]n3)cc(-c3ccccc3-c3ccccc3)c2)cc1` [DNM0464], in assay [1], the “% AcpS activity at 50 uM” value was determined as 9.03% and the “% AcpS activity @ 500 uM” value came out at 0.28%. Besides, the “MIC MRSA” value in assay [2] came to 1 µM (≈ 0.451 µg/mL). Also, the “MIC E coli D22” value in assay [3] was greater than 125 µM.

A word on the remaining activity: it is the activity still measured, relative to the control. Higher therefore signals a small loss of activity. Broadly, the MIC is the smallest concentration in the dilution series that meets the test's criterion for growth inhibition.
